# Test results reported in patent US20230382915A1, “GCN2 AND PERK KINASE INHIBITORS AND METHODS OF USE THEREOF” (Deciphera Pharmaceuticals, LLC, priority 2021, published 2023).
# Key:
# GCN2 kinase = GCN2 kinase (Homo sapiens (Human), UniProt Q9P2K8); experiment: Biochemical assay for GCN2 (TR-FRET kinase activity); conditions: 1 mM ATP
# Procedure: Activity of GCN2 kinase was determined using a TR-FRET kinase activity assay (e.g. Riddle et al. Analytical Biochemistry (2006) 356(1) 108-116). Assays were conducted in 384-well plates (13 μL assay volume) using 2 nM GCN2 (Carna Biosciences), 130 nM GFP-EIf2α (Invitrogen), 0.2 mg/mL E. coli tRNA (sigma) and 1 mM ATP in kinase buffer (Invitrogen). Inhibition of GCN2 was measured by adding serial diluted test compound (final assay concentration of 0.5% DMSO) followed by a 3-hour incubation. Tb-peIF2α (pSer52) antibody (Invitrogen) (2 nM final assay concentration) in kinase buffer containing EDTA (final assay concentration of 20 mM) was added. After a 60 min incubation at room temperature, TR-FRET was monitored using an excitation wavelength of 340 nm and emission wavelengths of 490 nm and 520 nm. The emission ratio (520/490) at each compound concentration of was converted to percent inhibition using controls (i.e., reaction with no test compound and reaction with a known inhibitor) and IC50 values were calculated by fitting a four-parameter sigmoidal curve to the data using Prism (GraphPad software).
# [1] = test system: ATF4 in HCT116 colorectal cancer cells; experiment: HCT116 amino acid starved (-AA) ATF4 Western blot; type: cell-based; conditions: Homo sapiens, HCT-116, 4 h
# Procedure: (§1) HCT116 colorectal cancer cells (catalog #CCL-247) were obtained from the American Type Culture Collect (ATTC, Manassas, VA). Briefly, cells were grown in RPMI 1640 supplemented with 10% heat inactivated fetal bovine serum (Invitrogen, Carlsbad, CA) and 1% Penicillin/Streptomycin/L-Glutamine at 37° C., 5% CO2, and 95% humidity. Cells were expanded until reaching 70-95% confluency at which point they were subcultured or harvested for assay use. Cells were seeded in 12-well culture plate at five hundred thousand cells per well in 1 mL complete growth medium and incubated overnight at 37° C., 5% CO2, and 95% humidity. The next day each well was replaced with 1 mL Earle's Balanced Salt Solution (EBSS, Invitrogen, Carlsbad, CA) supplemented with 10% Dialyzed Fetal Bovine Serum, 5.5 mM Glucose, 1% Penicillin/Streptomycin and 1% Vitamin solution (thermo #11120052). A serial dilution of test compound was dispensed into well. Plates were incubated for 4 h at 37° C., 5% CO2, and 95% humidity. […] Western blot was performed on each lysate to quantify phospho-GCN2 (Thr899), total GCN2, ATF4 and beta-Actin. […] Data were analyzed using GraphPad Prism software (GraphPad, San Diego, CA) to calculate IC50 values.
# [2] = test system: ATF4 in thapsigargin stimulated CCRF-CEM cells (PERK); experiment: CCRF-CEM thapsigargin (TG) ATF4 ELISA; type: cell-based; conditions: Homo sapiens, 1 μM thapsigargin
# Procedure: CCRF-CEM leukemia cells (catalog #CCL-116) were obtained from the American Type Culture Collection (ATTC, Manassas, VA). Briefly, cells were grown in RPMI-1640 medium supplemented with 10% heat-inactivated fetal bovine serum (Invitrogen, Carlsbad, CA) and 1% Penicillin/Streptomycin/L-Glutamine at 37° C., 5% CO2, and 95% humidity. Cells were expanded until reaching one million cells per mL at which time they were subcultured or harvested for assay use. One million five hundred thousand cells per well in 1 mL complete growth medium were dispensed into 12-well plates and incubated overnight. A serial dilution of test compound was added and cells were incubated at 37° C., 5% CO2, and 95% for three hours, then 1 μM thapsigargin was added and cells were incubated for an additional hour at 37° C., 5% CO2, and 95%. Cells were lysed then ATF4 levels were measured using an ELISA assay (Proteintech, Rosemont, IL). Absorbance was measured at 450 nm and 544 nM using a Synergy2 or equivalent reader (Biotek, Winooski VT). Data was analyzed using PRISM software (Graphpad, San Diego, CA) to calculate IC50 values.
# [3] = test system: phospho-GCN2 (Thr899) in HCT116 colorectal cancer cells; experiment: HCT116 amino acid starved (-AA) phospho-GCN2 Western blot; type: cell-based; conditions: Homo sapiens, HCT-116, 4 h, read-out: HCT116 -AA pGCN2 Western Blot
# Procedure: as §1
# CCRF-CEM leukemia cells = experiment: CCRF-CEM ASNase cell proliferation assay; type: cell-based; conditions: Homo sapiens, 1 mU/mL ASNase, 72 h
# Procedure: CCRF-CEM leukemia cells (catalog #CCL-116) were obtained from the American Type Culture Collect (ATTC, Manassas, VA). Cells were grown in RPMI-1640 medium supplemented with 10% heat-inactivated fetal bovine serum (Invitrogen, Carlsbad, CA) and 1% Penicillin/Streptomycin/L-Glutamine at 37° C., 5% CO2, and 95% humidity. Cells were expanded until reaching one million cells per mL at which time they are subcultured or harvested for assay use. Ten thousand cells per well in 200 μL RPMI-1640 supplemented with 10% heat-inactivated fetal bovine serum and 1% Penicillin/Streptomycin were dispensed into a 96-well black clear bottom plate. A serial dilution of test compound and 1 mU/mL ASNase was added in triplicate and plates were incubated for 72 h at 37° C., 5% CO2, and 95% humidity. At the end of the incubation, 40 μL of a […] solution of resazurin (Sigma, St. Louis, MO) in PBS was added to each well of the plate and plates were incubated for an additional 6 h at 37° C., 5% CO2, and 95% humidity. Plates were read on a Synergy2 or equivalent reader (Biotek, Winooski VT) using an excitation of 540 nm and an emission of 600 nm. Data was analyzed using GraphPad Prism software (GraphPad, San Diego, CA) to calculate IC50 values.
# PERK enzyme = PERK enzyme (Homo sapiens (Human), UniProt Q9NZJ5); experiment: Biochemical assay for PERK (coupled pyruvate kinase/lactate dehydrogenase); conditions: 1 mM ATP
# Sequence of PERK enzyme (Q9NZJ5 other isoform, or with tags, fused parts or gaps): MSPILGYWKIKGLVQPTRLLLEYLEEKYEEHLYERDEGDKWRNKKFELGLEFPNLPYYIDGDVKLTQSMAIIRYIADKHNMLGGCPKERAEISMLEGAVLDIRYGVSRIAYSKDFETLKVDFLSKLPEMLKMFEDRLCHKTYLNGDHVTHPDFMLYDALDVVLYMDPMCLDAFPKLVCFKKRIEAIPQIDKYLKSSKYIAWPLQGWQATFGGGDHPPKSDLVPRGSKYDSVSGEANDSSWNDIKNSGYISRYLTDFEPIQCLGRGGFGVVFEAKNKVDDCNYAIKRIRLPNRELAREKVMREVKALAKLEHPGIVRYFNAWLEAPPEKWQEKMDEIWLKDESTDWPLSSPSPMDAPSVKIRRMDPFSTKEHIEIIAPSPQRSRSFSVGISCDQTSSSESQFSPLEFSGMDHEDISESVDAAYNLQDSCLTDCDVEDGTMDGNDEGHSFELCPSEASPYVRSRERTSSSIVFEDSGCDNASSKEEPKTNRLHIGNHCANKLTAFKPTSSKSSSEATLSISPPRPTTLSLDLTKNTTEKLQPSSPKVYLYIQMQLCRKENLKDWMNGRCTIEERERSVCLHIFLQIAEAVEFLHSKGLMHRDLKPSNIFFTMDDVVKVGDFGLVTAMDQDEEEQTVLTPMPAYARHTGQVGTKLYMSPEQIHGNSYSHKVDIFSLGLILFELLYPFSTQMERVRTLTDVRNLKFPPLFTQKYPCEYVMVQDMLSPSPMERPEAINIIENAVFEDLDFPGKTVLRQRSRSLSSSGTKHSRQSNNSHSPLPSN
# Procedure: Activity of PERK kinase was determined spectroscopically using a coupled pyruvate kinase/lactate dehydrogenase assay that continuously monitors the ATP hydrolysis-dependent oxidation of NADH (e.g., Schindler et al. Science (2000) 289: 1938-1942). Assays were conducted in 384-well plates ([…] final volume) using 10 nM PERK (from Beryllium), 0.25 mg/mL Myelin Basic Protein substrate, 1.5 units pyruvate kinase, 2.1 units lactate dehydrogenase, 1 mM phosphoenol pyruvate, 0.28 mM NADH and 1 mM ATP in assay buffer (100 mM Tris, pH 7.5, 15 mM MgCl2, 0.5 mM DTT, 0.004% (w/v) BSA, and 0.004% Triton X-100). Inhibition of PERK was measured by adding serial diluted test compound (final assay concentration of 1% DMSO). A decrease in absorption at 340 nm was monitored continuously for 6 hours at 30° C. on a multi-mode microplate reader (BioTek). The reaction rate was calculated using the 2-3 h time frame. The reaction rate at each concentration of compound was converted to percent inhibition using controls (i.e., reaction with no test compound and reaction with a known inhibitor) and IC50 values were calculated using software routines in Prism (GraphPad software).
# [4] = test system: ATF4 in H929 multiple myeloma cells; experiment: H929 ATF4 ELISA assay; type: cell-based; conditions: four hours, relative to vehicle treated control
# Procedure: H929 multiple myeloma cells (catalog #CRL-9068) were obtained from the American Type Culture Collection (ATTC, Manassas, VA). Briefly, cells were grown in RPMI-1640 medium supplemented with 20% heat-inactivated fetal bovine serum (catalog #A3840002, ThermoFisher Scientific, Waltham, MA), 1% Penicillin/Streptomycin/L-Glutamine (catalog #10378016, ThermoFisher Scientific, Waltham, MA), and 0.05 mM 2-mercaptoethanol (catalog #21985-023, ThermoFisher Scientific, Waltham, MA) at 37° C., 5% CO2, and 95% humidity. Cells were expanded until reaching one million five hundred thousand cells per mL at which time they were sub-cultured or harvested for assay use. One million five hundred thousand cells per well in 1 mL complete growth medium were dispensed into 12-well plates and incubated overnight. A serial dilution of test compound was added, and cells were incubated at 37° C., 5% CO2, and 95% for four hours. Cells were lysed then ATF4 levels were measured using an ELISA assay (Proteintech, Rosemont, IL). Absorbance is measured at 450 nm and 544 nM using a Synergy2 or equivalent reader (Biotek, Winooski VT). Data were analyzed using PRISM software (Graphpad, San Diego, CA) to calculate fold stimulation of cellular ATF4 relative to vehicle treated control.
# Sequence of GCN2 kinase (Q9P2K8 whole entry): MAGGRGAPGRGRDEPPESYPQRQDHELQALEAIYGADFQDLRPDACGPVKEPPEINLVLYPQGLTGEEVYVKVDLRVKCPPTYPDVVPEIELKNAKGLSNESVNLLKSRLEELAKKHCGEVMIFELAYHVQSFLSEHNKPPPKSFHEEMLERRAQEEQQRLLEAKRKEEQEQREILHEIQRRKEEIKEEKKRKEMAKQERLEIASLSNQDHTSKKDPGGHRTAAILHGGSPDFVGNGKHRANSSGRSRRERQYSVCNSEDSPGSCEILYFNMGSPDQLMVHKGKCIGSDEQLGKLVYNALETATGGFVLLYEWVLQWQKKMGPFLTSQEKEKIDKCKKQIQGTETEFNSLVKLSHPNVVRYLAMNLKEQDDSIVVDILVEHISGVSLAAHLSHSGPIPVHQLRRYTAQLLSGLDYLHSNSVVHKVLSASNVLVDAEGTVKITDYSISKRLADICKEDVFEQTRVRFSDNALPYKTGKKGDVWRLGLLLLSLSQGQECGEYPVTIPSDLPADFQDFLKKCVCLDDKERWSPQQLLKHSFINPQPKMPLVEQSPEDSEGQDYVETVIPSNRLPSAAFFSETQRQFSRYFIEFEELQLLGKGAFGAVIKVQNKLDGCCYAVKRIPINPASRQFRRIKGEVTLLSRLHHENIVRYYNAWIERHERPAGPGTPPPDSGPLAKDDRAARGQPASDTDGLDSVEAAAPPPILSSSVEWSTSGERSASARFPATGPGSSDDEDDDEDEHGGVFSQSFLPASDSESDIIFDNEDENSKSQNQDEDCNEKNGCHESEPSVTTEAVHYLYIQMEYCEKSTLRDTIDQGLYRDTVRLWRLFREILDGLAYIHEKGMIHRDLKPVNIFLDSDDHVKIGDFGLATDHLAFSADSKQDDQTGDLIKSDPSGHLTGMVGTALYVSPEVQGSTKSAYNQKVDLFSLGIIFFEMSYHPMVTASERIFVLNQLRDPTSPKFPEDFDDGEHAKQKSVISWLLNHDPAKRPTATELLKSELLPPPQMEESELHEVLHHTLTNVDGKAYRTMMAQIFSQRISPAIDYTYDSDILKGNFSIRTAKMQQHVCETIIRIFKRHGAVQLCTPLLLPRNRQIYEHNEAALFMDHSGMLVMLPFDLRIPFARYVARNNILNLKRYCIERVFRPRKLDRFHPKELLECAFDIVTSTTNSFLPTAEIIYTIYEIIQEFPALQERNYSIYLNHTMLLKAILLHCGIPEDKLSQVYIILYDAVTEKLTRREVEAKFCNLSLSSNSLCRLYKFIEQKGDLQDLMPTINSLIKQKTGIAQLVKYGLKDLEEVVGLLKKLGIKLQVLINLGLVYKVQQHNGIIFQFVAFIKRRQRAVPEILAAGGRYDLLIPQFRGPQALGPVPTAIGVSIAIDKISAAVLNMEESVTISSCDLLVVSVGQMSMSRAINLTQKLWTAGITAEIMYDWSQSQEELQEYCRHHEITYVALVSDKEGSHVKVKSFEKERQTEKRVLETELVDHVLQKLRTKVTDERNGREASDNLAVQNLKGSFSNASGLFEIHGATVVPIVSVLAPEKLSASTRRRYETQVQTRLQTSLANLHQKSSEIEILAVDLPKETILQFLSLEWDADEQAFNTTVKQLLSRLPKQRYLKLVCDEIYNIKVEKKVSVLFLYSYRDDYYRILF
smiles,measurement,setting,value
CC(C)n1cc(-c2cccc(NS(=O)(=O)c3cc(Cl)cc(CO)c3Cl)c2F)c2c(N)ncnc21 [Example 3],IC50,GCN2 kinase,≤ 100 nM
same,IC50,[1],≤ 100 nM
same,IC50,[2],≤ 100 nM
same,IC50,[3],≤ 100 nM
same,IC50,CCRF-CEM leukemia cells,≤ 100 nM
same,IC50,PERK enzyme,≤ 100 nM
Cn1cc(-c2cc(F)cc(NS(=O)(=O)c3cc(Cl)cc(CO)c3Cl)c2F)c2c(N)ncnc21 [Example 14],H929 NS ATF4 ELISA (ATF4 stim),[4],++ (an ATF4 stim greater than 5-fold and less than or equal to 10 fold)
same,IC50,GCN2 kinase,≤ 100 nM
same,IC50,[2],100 to 500 nM
same,IC50,CCRF-CEM leukemia cells,100 to 500 nM
same,IC50,PERK enzyme,≤ 100 nM
Cn1nc(-c2cccc(NS(=O)(=O)c3cc(Cl)cc(CO)c3Cl)c2F)c2c(N)ncnc21 [Example 21],H929 NS ATF4 ELISA (ATF4 stim),[4],++ (an ATF4 stim greater than 5-fold and less than or equal to 10 fold)
same,IC50,GCN2 kinase,≤ 100 nM
same,IC50,[2],100 to 500 nM
same,IC50,CCRF-CEM leukemia cells,100 to 500 nM
same,IC50,PERK enzyme,≤ 100 nM
COc1c(CO)cc(Cl)cc1S(=O)(=O)Nc1cccc(-c2cn(C)c3ncnc(N)c23)c1F [Example 24],H929 NS ATF4 ELISA (ATF4 stim),[4],++ (an ATF4 stim greater than 5-fold and less than or equal to 10 fold)
same,IC50,GCN2 kinase,1000 to 10000 nM
same,IC50,[2],100 to 500 nM
same,IC50,CCRF-CEM leukemia cells,1000 to 10000 nM
same,IC50,PERK enzyme,≤ 100 nM
Cc1cc(CO)c(Cl)c(S(=O)(=O)Nc2cccc(-c3cn(C)c4ncnc(N)c34)c2F)c1 [Example 25],H929 NS ATF4 ELISA (ATF4 stim),[4],+++ (an ATF4 stim greater than 10 fold and less than or equal to 20 fold)
same,IC50,GCN2 kinase,100 to 500 nM
same,IC50,[2],≤ 100 nM
same,IC50,CCRF-CEM leukemia cells,100 to 500 nM
same,IC50,PERK enzyme,≤ 100 nM
Cc1c(CO)cc(Cl)cc1S(=O)(=O)Nc1cccc(-c2cn(C)c3ncnc(N)c23)c1F [Example 26],H929 NS ATF4 ELISA (ATF4 stim),[4],+++ (an ATF4 stim greater than 10 fold and less than or equal to 20 fold)
same,IC50,GCN2 kinase,≤ 100 nM
same,IC50,[2],≤ 100 nM
same,IC50,CCRF-CEM leukemia cells,100 to 500 nM
same,IC50,PERK enzyme,≤ 100 nM
